Active and inactive are the calls of the source. No cut-off for these calls is given here.
Key:
[1] = biological target: T1, Serine/threonine-protein kinase SMG1 (Homo sapiens, UniProt Q96Q15); test: Inhibition of human recombinant SMG1 expressed in HEK293 cells using GST-tagged p53 as substrate after 1 hr by DELFIA assay
[2] = biological target: T2, Serine/threonine-protein kinase mTOR (Homo sapiens, UniProt P42345); test: Inhibition of mTOR
[3] = organism: Homo sapiens; test: Selectivity ratio of IC50 for mTOR to IC50 for human recombinant SMG1
[4] = biological target: Cyclin-dependent kinase 1 (Homo sapiens, UniProt P06493); test: Inhibition of CDK1
[5] = biological target: Cyclin-dependent kinase 2 (Homo sapiens, UniProt P24941); test: Inhibition of CDK2
[6] = biological target: Glycogen synthase kinase-3 alpha (Homo sapiens, UniProt P49840); test: Inhibition of GSK3alpha
[7] = biological target: Glycogen synthase kinase-3 beta (Homo sapiens, UniProt P49841); test: Inhibition of GSK3beta
[8] = biological target: Phosphatidylinositol 4,5-bisphosphate 3-kinase catalytic subunit alpha isoform (Homo sapiens, UniProt P42336); test: Inhibition of PI3Kalpha using diC8-tagged PIP2 as substrate after 30 to 60 mins by TAMRA-based fluorescence polarization assay
[9] = biological target: Phosphatidylinositol 4,5-bisphosphate 3-kinase catalytic subunit gamma isoform (Homo sapiens, UniProt P48736); test: Inhibition of PI3Kgamma using diC8-tagged PIP2 as substrate after 30 to 60 mins by TAMRA-based fluorescence polarization assay
[10] = biological target: T2, Serine/threonine-protein kinase mTOR; test: Inhibition of mTOR in human MDA-MB-361 cells assessed as inhibition of p70S6K phosphorylation at 0.3 to 3 uM after 6 hrs by immunostaining analysis; assay type: cell-based
[11] = tested on: MDA-MB-361; test: Inhibition of PI3K in human MDA-MB-361 cells assessed as inhibition of AKT phosphorylation at 0.3 to 3 uM after 6 hrs by immunostaining analysis; assay type: cell-based
[12] = biological target: T1, Serine/threonine-protein kinase SMG1; test: Inhibition of SMG1 in human MDA-MB-361 cells assessed as inhibition of UPF1 phosphorylation at 1 uM after 6 hrs by immunostaining analysis; assay type: cell-based
[13] = biological target: T1, Serine/threonine-protein kinase SMG1; test: Inhibition of SMG1 in human MDA-MB-361 cells assessed as inhibition of UPF1 phosphorylation at 0.3 uM after 6 hrs by immunostaining analysis; assay type: cell-based
[14] = tested on: MDA-MB-468; test: Cytotoxicity against human MDA-MB-468 cells; assay type: functional, cell-based
[15] = biological target: T1, Serine/threonine-protein kinase SMG1; test: Inhibition of SMG1 in human MDA-MB-361 cells assessed as inhibition of UPF1 phosphorylation after 6 hrs by immunostaining analysis; assay type: cell-based
[16] = biological target: T1, Serine/threonine-protein kinase SMG1; test: Inhibition of SMG1 in human MDA-MB-361 cells assessed as inhibition of UPF1 phosphorylation up to 3 uM after 6 hrs by immunostaining analysis; assay type: cell-based

T1 sequence (Q96Q15 whole entry): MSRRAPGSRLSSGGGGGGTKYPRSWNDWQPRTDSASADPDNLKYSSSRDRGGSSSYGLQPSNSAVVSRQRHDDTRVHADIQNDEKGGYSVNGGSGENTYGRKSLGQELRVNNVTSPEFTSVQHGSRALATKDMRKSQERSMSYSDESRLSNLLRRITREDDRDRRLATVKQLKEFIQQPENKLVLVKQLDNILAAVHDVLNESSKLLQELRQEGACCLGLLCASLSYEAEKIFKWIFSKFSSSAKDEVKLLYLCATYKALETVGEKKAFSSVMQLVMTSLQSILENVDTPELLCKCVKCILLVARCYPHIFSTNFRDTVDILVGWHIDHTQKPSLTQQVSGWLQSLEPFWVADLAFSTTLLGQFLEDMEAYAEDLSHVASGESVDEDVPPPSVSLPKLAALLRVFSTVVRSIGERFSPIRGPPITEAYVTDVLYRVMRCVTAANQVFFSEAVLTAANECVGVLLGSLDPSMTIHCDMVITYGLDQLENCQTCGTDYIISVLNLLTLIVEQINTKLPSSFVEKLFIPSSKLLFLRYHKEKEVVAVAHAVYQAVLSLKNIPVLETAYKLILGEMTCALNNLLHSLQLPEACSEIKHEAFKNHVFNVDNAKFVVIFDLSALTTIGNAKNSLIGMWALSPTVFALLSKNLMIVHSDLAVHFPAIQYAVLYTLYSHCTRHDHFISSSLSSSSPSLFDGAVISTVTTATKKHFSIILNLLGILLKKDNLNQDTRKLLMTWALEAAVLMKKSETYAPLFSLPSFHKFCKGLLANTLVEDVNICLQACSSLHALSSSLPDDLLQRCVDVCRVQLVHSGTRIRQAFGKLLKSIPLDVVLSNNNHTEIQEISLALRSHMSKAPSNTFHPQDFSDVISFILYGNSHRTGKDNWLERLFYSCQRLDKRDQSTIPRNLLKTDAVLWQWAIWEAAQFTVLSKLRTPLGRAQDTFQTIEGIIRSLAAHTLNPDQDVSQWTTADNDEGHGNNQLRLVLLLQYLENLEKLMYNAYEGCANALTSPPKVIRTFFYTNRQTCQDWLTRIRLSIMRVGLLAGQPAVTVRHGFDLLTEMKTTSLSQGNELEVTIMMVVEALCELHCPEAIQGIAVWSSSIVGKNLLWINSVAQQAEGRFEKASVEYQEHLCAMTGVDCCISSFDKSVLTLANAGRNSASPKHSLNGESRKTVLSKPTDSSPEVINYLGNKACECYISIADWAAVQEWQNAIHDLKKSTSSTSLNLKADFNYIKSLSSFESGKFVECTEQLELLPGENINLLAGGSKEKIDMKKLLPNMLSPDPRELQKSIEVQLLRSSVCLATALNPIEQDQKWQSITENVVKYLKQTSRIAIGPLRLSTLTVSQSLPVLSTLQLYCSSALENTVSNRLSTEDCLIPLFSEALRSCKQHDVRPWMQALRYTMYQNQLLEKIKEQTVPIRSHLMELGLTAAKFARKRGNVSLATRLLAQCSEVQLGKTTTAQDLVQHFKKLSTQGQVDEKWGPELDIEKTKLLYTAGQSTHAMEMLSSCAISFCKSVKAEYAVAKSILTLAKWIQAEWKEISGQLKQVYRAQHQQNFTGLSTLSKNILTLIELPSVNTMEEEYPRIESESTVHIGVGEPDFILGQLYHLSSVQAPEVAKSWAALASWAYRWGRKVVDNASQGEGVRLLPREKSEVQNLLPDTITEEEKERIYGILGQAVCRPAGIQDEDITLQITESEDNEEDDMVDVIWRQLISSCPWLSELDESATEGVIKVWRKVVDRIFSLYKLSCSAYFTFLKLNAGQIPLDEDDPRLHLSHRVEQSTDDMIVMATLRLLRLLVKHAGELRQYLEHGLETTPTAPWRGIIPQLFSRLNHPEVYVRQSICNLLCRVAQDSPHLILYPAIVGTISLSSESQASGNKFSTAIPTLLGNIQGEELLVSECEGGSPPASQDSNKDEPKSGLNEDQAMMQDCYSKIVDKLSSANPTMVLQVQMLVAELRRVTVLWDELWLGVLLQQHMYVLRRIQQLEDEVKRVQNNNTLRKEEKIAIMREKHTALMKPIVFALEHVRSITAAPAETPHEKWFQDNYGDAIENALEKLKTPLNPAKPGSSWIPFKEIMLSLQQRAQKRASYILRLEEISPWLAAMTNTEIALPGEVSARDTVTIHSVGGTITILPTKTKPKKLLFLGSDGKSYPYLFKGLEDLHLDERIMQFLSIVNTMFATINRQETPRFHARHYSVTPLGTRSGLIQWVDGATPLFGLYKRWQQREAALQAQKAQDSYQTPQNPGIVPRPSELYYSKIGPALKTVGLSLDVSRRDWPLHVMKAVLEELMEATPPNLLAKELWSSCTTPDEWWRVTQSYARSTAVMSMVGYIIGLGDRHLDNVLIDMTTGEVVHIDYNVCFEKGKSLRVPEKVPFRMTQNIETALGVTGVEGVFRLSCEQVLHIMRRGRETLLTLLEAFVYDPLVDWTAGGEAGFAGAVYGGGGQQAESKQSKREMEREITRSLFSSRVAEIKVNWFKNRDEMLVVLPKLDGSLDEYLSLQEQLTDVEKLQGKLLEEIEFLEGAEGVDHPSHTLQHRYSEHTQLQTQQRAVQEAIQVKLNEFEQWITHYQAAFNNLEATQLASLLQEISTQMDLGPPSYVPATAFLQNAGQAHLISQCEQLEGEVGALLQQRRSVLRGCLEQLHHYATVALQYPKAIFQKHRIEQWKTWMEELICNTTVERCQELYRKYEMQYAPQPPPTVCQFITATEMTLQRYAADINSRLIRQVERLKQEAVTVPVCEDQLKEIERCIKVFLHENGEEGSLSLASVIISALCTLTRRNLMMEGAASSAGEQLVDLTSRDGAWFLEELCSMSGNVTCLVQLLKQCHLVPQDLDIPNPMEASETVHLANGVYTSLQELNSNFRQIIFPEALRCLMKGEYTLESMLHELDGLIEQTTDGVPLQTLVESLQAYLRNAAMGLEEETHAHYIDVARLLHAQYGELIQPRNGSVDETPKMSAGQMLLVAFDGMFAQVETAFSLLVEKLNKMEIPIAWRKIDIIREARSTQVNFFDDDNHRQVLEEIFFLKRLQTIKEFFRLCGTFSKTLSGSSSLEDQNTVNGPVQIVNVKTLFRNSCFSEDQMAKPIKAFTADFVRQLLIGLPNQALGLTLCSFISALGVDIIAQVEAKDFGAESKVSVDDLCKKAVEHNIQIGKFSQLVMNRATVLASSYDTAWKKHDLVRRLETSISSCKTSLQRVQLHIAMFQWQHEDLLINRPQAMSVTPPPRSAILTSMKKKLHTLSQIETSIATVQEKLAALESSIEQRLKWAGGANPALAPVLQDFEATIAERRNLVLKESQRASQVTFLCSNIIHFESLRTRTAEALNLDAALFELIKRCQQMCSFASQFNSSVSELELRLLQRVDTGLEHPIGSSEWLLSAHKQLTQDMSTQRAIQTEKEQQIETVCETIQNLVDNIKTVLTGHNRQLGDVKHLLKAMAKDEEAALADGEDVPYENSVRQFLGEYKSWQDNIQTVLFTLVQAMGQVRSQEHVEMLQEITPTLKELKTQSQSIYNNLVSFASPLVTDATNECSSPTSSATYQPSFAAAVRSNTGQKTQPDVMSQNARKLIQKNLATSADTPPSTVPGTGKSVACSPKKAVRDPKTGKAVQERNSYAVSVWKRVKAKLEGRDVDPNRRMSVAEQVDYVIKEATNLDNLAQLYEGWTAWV
Chain of Phosphatidylinositol 4,5-bisphosphate 3-kinase catalytic subunit alpha isoform (P42336 whole entry, canonical isoform): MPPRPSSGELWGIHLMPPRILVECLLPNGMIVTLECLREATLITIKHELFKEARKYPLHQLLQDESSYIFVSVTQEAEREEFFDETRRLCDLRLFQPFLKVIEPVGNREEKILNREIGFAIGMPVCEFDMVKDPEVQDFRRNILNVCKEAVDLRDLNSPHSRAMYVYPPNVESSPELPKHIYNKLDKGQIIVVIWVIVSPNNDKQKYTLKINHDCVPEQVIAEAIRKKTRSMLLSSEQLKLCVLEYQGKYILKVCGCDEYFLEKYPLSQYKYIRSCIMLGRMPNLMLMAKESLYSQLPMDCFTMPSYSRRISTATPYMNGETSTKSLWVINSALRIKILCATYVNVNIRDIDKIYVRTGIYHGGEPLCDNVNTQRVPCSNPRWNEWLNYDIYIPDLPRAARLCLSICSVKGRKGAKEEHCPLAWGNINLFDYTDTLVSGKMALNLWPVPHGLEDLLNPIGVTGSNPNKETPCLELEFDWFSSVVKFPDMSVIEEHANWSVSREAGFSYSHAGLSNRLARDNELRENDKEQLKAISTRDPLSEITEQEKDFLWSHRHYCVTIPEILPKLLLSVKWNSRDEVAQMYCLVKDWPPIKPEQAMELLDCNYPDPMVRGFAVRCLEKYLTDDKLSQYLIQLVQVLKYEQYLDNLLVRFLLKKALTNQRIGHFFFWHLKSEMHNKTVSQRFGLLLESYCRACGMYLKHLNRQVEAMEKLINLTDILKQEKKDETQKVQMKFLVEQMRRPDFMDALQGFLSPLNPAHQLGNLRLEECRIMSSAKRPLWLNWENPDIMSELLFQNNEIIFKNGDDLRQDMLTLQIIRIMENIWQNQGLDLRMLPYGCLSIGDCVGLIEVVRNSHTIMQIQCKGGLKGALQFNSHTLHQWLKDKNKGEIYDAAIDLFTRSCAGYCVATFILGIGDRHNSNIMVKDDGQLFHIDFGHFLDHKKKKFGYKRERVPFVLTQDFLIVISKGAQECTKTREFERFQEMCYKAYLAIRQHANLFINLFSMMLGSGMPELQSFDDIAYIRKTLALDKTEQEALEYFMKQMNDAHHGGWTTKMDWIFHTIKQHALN
Chain of Cyclin-dependent kinase 1 (P06493 whole entry): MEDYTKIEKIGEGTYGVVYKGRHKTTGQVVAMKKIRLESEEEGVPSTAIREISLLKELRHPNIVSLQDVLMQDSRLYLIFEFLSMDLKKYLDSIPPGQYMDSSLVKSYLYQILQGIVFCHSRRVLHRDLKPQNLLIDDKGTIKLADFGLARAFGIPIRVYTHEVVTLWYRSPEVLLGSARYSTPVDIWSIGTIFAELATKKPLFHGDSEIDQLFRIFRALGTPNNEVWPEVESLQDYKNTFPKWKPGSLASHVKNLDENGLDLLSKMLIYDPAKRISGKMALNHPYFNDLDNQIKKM

| SMILES | IC50 [1] [nM] | IC50 [2] [nM] | Ratio IC50 [3] | IC50 [4] [nM] | IC50 [5] [nM] | also measured |
| --- | --- | --- | --- | --- | --- | --- |
| c1ccc(Nc2nccc(-c3ccnc(N4CCOCC4)c3)n2)cc1 | 1500 | > 4000 | > 3 |  |  |  |
| CCN(CC)S(=O)(=O)c1cc(Nc2nccc(-c3ccnc(-c4ccc(NC(=O)NC)cc4)c3)n2)ccc1Cl | 0.11 | 50 | 455 | 32000 | 7100 | IC50 [6]: 260 nM; IC50 [7]: 330 nM; IC50 [8]: 92 nM; IC50 [9]: 60 nM; inhibition [10]: inactive; inhibition [11]: inactive; inhibition [12]: Active; inhibition [13]: Active; IC50 [14]: 75 nM |
| NS(=O)(=O)c1cccc(Nc2nccc(-c3ccnc(N4CCCCC4)c3)n2)c1 | 3 | 140 | 47 | 36 | 16 | inhibition [15]: Dose-dependent effect; inhibition [10]: Active; inhibition [11]: Active |
| NS(=O)(=O)c1ccc(Nc2nccc(-c3ccnc(N4CCOCC4)c3)n2)cc1 | 370 | > 20000 | > 54 |  |  | inhibition [16]: inactive |
| COc1cccc(Nc2nccc(-c3ccnc(N4CCOCC4)c3)n2)c1 | 1100 | 4600 | 4 |  |  |  |
| CNC(=O)Nc1ccc(-c2cc(-c3ccnc(Nc4ccc(Cl)c(S(=O)(=O)NC)c4)n3)ccn2)cc1 | < 0.05 | 7.7 | > 154 | 320 | 140 |  |
| NS(=O)(=O)c1cccc(Nc2nccc(-c3ccnc(N4CCOCC4)c3)n2)c1 | 11 | 610 | 56 | 55 | 19 |  |
| CCN(CC)c1cc(-c2ccnc(Nc3cccc(S(N)(=O)=O)c3)n2)ccn1 | 3 | 110 | 37 | 7.4 | < 5.2 |  |
| CNC(=O)Nc1ccc(-c2cc(-c3ccnc(Nc4ccc(Cl)c(S(=O)(=O)N(C)C)c4)n3)ccn2)cc1 | < 0.05 | 12 | > 244 | 1400 | 520 | IC50 [8]: 33 nM; IC50 [9]: 54 nM |
| CNC(=O)Nc1ccc(-c2cc(-c3ccnc(Nc4ccc(C)c(S(N)(=O)=O)c4)n3)ccn2)cc1 | < 0.05 | 16 | > 320 |  |  |  |
| NS(=O)(=O)c1cccc(Nc2nccc(-c3ccnc(N4CC5CCC(C4)O5)c3)n2)c1 | 6 | 200 | 33 | 48 | 21 |  |
| CNC(=O)Nc1ccc(-c2cc(-c3ccnc(Nc4cccc(S(N)(=O)=O)c4)n3)ccn2)cc1 | < 0.05 | 18 | > 360 | 62 | 23 | IC50 [8]: 44 nM; IC50 [9]: 91 nM |
| Clc1ccc(Nc2nccc(-c3ccnc(N4CCOCC4)c3)n2)cc1 | 1000 | > 20000 | > 19 |  |  |  |
| CNC(=O)Nc1ccc(-c2cc(-c3ccnc(Nc4ccc(C)c(S(=O)(=O)NC)c4)n3)ccn2)cc1 | < 0.05 | 18 | > 350 | 230 | 110 | IC50 [8]: 43 nM; IC50 [9]: 63 nM |
| NS(=O)(=O)c1ccc(Nc2nccc(-c3cccc(C(=O)N4CCCCC4)c3)n2)cc1 | 450 | 890 |  |  |  |  |
| Cc1cccc(Nc2nccc(-c3ccnc(N4CCOCC4)c3)n2)c1 | 330 | > 20000 | > 61 | 100 | 46 |  |
| Clc1cccc(Nc2nccc(-c3ccnc(N4CCOCC4)c3)n2)c1 | 280 | > 20000 | > 71 | 35 | 8.9 |  |
| NS(=O)(=O)c1cccc(Nc2nccc(-c3ccnc(NCCCO)c3)n2)c1 | 22 | 320 | 15 | 12 | 6.7 |  |
| N#Cc1cccc(Nc2nccc(-c3ccnc(N4CCOCC4)c3)n2)c1 | 80 | > 4000 | > 50 |  |  |  |
| NS(=O)(=O)c1cccc(Nc2nccc(-c3ccnc(N4C5CCC4COC5)c3)n2)c1 | 25 | 3200 | 130 | 100 | 31 |  |
| CCN(CC)S(=O)(=O)c1cccc(Nc2nccc(-c3ccnc(-c4ccc(NC(=O)NC)cc4)c3)n2)c1 | 0.2 | 25 | 125 | 3200 | 560 | IC50 [8]: 78 nM; IC50 [9]: 59 nM |
| CN1CCN(c2cc(-c3ccnc(Nc4cccc(S(N)(=O)=O)c4)n3)ccn2)CC1 | 310 | 3300 | 10 |  |  |  |
| CCN(CC)S(=O)(=O)c1cc(Nc2nccc(-c3ccnc(-c4ccc(NC(=O)NC)cc4)c3)n2)ccc1C | 0.2 | 88 | 440 | 14000 | 3000 | IC50 [8]: 130 nM; IC50 [9]: 93 nM |
| CNC(=O)Nc1ccc(-c2cc(-c3ccnc(Nc4cccc(S(=O)(=O)NC)c4)n3)ccn2)cc1 | 0.1 | 15 | > 150 | 210 | 100 | IC50 [8]: 80 nM; IC50 [9]: 82 nM |
| CNC(=O)Nc1ccc(-c2cc(-c3ccnc(Nc4ccc(C)c(S(=O)(=O)N(C)C)c4)n3)ccn2)cc1 | < 0.05 | 45 | > 900 | 1200 | 460 | IC50 [8]: 61 nM; IC50 [9]: 72 nM |
| OCCCNc1cc(-c2ccnc(Nc3cccc(Cl)c3)n2)ccn1 | 110 | 800 | 8 | < 5.2 | < 5.2 |  |
| FC(F)(F)c1cccc(Nc2nccc(-c3ccnc(N4CCOCC4)c3)n2)c1 | 250 | 1700 | 7 |  |  |  |

Source: ChEMBL document CHEMBL2157945, “Identification of pyrimidine derivatives as hSMG-1 inhibitors” (Bioorg Med Chem Lett, 2012)
